Where only a bound is given, the exact number is not on record here.

What is called IC50 is the midpoint of a concentration-inhibition curve.

This assay concerns the target Proteasome chymotrypsin-like activity (S26 protein from RPMI8226 cells) (Homo sapiens, UniProt P28074). The assay is classed as biochemical. The following applies: S26 protein from RPMI8226 cell extract 2 ug/well, substrate 20 uM, 37° C., 90 minutes; read-out: Proteasome chymotrypsin-like activity inhibition IC50. In a few lines: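 S26 proteasome fraction from homogenized RPMI8226 myeloma cells in 20 mM Tris-HCl pH 8.0 (2 ug extract/well) incubated 90 min at 37 °C with compound serially diluted from 10 uM (0.5% DMSO).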

Proteasome chymotrypsin-like activity (S26 protein from RPMI8226 cells), sequence (P28074 60-263 limits assumed): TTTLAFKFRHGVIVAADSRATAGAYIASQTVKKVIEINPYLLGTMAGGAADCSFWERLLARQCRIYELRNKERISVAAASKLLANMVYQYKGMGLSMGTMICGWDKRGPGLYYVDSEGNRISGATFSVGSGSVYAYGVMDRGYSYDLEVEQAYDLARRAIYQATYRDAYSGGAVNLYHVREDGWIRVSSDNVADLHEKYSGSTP

For the molecule `CC(C)C[C@H](NC(=O)C1(Cc2cccc(Cl)c2)CC(CNC(=O)c2ccnn2C(C)C)=NO1)B(O)O` (stereo partly drawn) [Example 250, ((1R)-1-(5-(3-chlorobenzyl)-3-((1-isopropyl-1H-pyrazol-5-carboxamido)methyl)-4,5-dihydroisoxazol-5-carboxamido)-3-methylbutyl)boronic acid], the IC50 is less than 10 nM.
On to `CC(C)C[C@H](NC(=O)C1CC(c2nccc3ccccc23)=NO1)B(O)O` (stereo partly drawn) [Example 12, ((1R)-1-(3-(isoquinolin-1-yl)-4,5-dihydroisoxazol-5-carboxamido)-3-methylbutyl)boronic acid], for which the IC50 was less than 250 nM.
As to `CC(C)C[C@H](NC(=O)C1CC(c2ccc3ccccc3n2)=NO1)B(O)O` (stereo partly drawn) [Example 21, ((1R)-3-methyl-1-(3-(quinolin-2-yl)-4,5-dihydroisoxazol-5-carboxamido)butyl)boronic acid], the IC50 is less than 250 nM.
As to `O=C(NCC1=NOC(Cc2ccccc2)(C(=O)N[C@@H](Cc2ccccc2)B(O)O)C1)c1nccc2ccccc12` (stereo partly drawn) [Example 288, ((1R)-1-(5-benzyl-3-((isoquinolin-1-carboxamido)methyl)-4,5-dihydroisoxazol-5-carboxamido)-2-phenylethyl)boronic acid], the IC50 is less than 10 nM.
As for `COc1cccc(CC2(C(=O)N[C@@H](CC(C)C)B(O)O)CC(CNC(=O)c3cc(C(C)(C)C)nn3C(C)C)=NO2)c1` (stereo partly drawn) [Example 231, ((1R)-1-(3-((3-(tert-butyl)-1-isopropyl-1H-pyrazol-5-carboxamido)methyl)-5-(3-methoxybenzyl)-4,5-dihydroisoxazol-5-carboxamido)-3-methylbutyl)boronic acid], the 50% inhibitory concentration (IC50) was less than 10 nM.
The value for `CC(C)C[C@H](NC(=O)C1(COC2CCCCC2)CC(CNC(=O)c2nccc3ccccc23)=NO1)B(O)O` (stereo partly drawn) [Example 214, ((1R)-1-(5-((cyclohexyloxy)methyl)-3-((isoquinolin-1-carboxamido)methyl)-4,5-dihydroisoxazol-5-carboxamido)-3-methylbutyl)boronic acid] was less than 10 nM; that for `CC(C)C[C@H](NC(=O)C1CC(CNC(=O)c2ccccn2)=NO1)B(O)O` (stereo partly drawn) [Example 60] was less than 250 nM; that for `CC(C)C[C@H](NC(=O)C1CC(CNC(=O)c2ccc3ccccc3c2)=NO1)B(O)O` (stereo partly drawn) [Example 69, [(1R)-3-methyl-1-[[3-[(naphthalen-2-carbonylamino)methyl]-4,5-dihydro-1,2-oxazol-5-carbonyl]amino]butyl]boronic acid] was less than 25 nM.
For `CC(C)C[C@H](NC(=O)C1(Cc2cccc(F)c2F)CC(CNC(=O)c2nccc3ccccc23)=NO1)B(O)O` (stereo partly drawn) [Example 203, ((1R)-1-(5-(2,3-difluorobenzyl)-3-((isoquinolin-1-carboxamido)methyl)-4,5-dihydroisoxazol-5-carboxamido)-3-methylbutyl)boronic acid], the concentration for half-maximal inhibition (IC50) was less than 10 nM.
`COCCn1nccc1C(=O)NCC1=NOC(Cc2ccccc2)(C(=O)N[C@@H](CC(C)C)B(O)O)C1` (stereo partly drawn) [Example 191, ((1R)-1-(5-benzyl-3-((1-(2-methoxyethyl)-1H-pyrazol-5-carboxamido)methyl)-4,5-dihydroisoxazol-5-carboxamido)-3-methylbutyl)boronic acid]: the 50% inhibitory concentration (IC50) is less than 25 nM.
The value for `Cc1cccc(CC2(C(=O)N[C@@H](CC(C)C)B(O)O)CC(CNC(=O)c3cc(C(C)(C)C)nn3C(C)C)=NO2)c1` (stereo partly drawn) [Example 237, ((1R)-1-(3-((3-(tert-butyl)-1-isopropyl-1H-pyrazol-5-carboxamido)methyl)-5-(3-methylbenzyl)-4,5-dihydroisoxazol-5-carboxamido)-3-methylbutyl)boronic acid] was less than 10 nM; that for `CC(C)C[C@H](NC(=O)C1(Cc2ccccc2)CC(CNC(=O)c2ccnn2C2CCOCC2)=NO1)B(O)O` (stereo partly drawn) [Example 197, ((1R)-1-(5-benzyl-3-((1-(tetrahydro-2H-pyran-4-yl)-1H-pyrazol-5-carboxamido)methyl)-4,5-dihydroisoxazol-5-carboxamido)-3-methylbutyl)boronic acid] was less than 10 nM; that for `Cc1nn(C(C)C)c(C(=O)NCC2=NOC(Cc3cccc(Cl)c3)(C(=O)N[C@@H](CC(C)C)B(O)O)C2)c1Cl` (stereo partly drawn) [Example 248, ((1R)-1-(3-((4-chloro-1-isopropyl-3-methyl-1H-pyrazol-5-carboxamido)methyl)-5-(3-chlorobenzyl)-4,5-dihydroisoxazol-5-carboxamido)-3-methylbutyl)boronic acid] was less than 10 nM.
On to `Cc1ncc(C(=O)NCC2=NOC(Cc3ccccc3)(C(=O)N[C@@H](CC(C)C)B(O)O)C2)s1` (stereo partly drawn) [Example 235, ((1R)-1-(5-benzyl-3-((2-methylthiazol-5-carboxamido)methyl)-4,5-dihydroisoxazol-5-carboxamido)-3-methylbutyl)boronic acid], for which the IC50 is less than 10 nM.
As to `CC(C)C[C@H](NC(=O)C1(Cc2ccccc2)CC(COCc2cccc(Br)c2)=NO1)B(O)O` (stereo partly drawn) [Example 52, ((1R)-1-(5-benzyl-3-(((3-bromobenzyl)oxy)methyl)-4,5-dihydroisoxazol-5-carboxamido)-3-methylbutyl)boronic acid], the concentration for half-maximal inhibition (IC50) was less than 10 nM.
On to `CC(C)C[C@H](NC(=O)C1CC(c2cc(Cl)ccc2Cl)=NO1)B(O)O` (stereo partly drawn) [Example 3, ((1R)-1-(3-(2,5-dichlorophenyl)-4,5-dihydroisoxazol-5-carboxamido)-3-methylbutyl)boronic acid], for which the half-maximal inhibitory concentration (IC50) was less than 250 nM.
Consider `N#Cc1cccc(COCC2=NOC(Cc3ccccc3)(C(=O)N[C@@H](Cc3ccccc3)B(O)O)C2)c1` (stereo partly drawn) [Example 265, ((1R)-1-(5-benzyl-3-(((3-cyanobenzyl)oxy)methyl)-4,5-dihydroisoxazol-5-carboxamido)-2-phenylethyl)boronic acid], for which the IC50 is less than 10 nM.
Turning to `CC(C)C[C@H](NC(=O)C1(C2(c3ccccc3)CC2)CC(CNC(=O)c2cccn3ccnc23)=NO1)B(O)O` (stereo partly drawn) [Example 181, ((1R)-1-(3-((imidazo[1,2-a]pyridin-8-carboxamido)methyl)-5-(1-phenylcyclopropyl)-4,5-dihydroisoxazol-5-carboxamido)-3-methylbutyl)boronic acid], the IC50 is less than 50 nM.
As for `COc1ccc(COCC2=NOC(Cc3ccccc3)(C(=O)N[C@@H](CC(C)C)B(O)O)C2)cc1` (stereo partly drawn) [Example 274], the IC50 was less than 100 nM.
`CC(C)C[C@H](NC(=O)C1CC([C@@H](NC(=O)c2cccc3c2CCCC3)C(C)C)=NO1)B(O)O` (stereo partly drawn) [Example 66, ((1R)-3-methyl-1-(3-((S)-2-methyl-1-(5,6,7,8-tetrahydronaphthalen-1-carboxamido)propyl)-4,5-dihydroisoxazol-5-carboxamido)butyl)boronic acid]: the IC50 was less than 25 nM.
In the case of `CC(C)C[C@H](NC(=O)C1(Cc2ccccc2)CC(COCc2cccc(-c3ccccc3)n2)=NO1)B(O)O` (stereo partly drawn) [Example 55, [(1R)-1-[[5-benzyl-3-[(6-phenyl-2-pyridyl)methoxymethyl]-4H-1,2-oxazol-5-carbonyl]amino]-3-methyl-butyl]boronic acid], the 50% inhibitory concentration (IC50) is less than 10 nM.
Consider `CC(C)C[C@H](NC(=O)C1(Cc2ccccc2)CC(CNC(=O)c2cc3ccccc3s2)=NO1)B(O)O` (stereo partly drawn) [Example 93, ((1R)-1-(3-((benzo[b]thiophen-2-carboxamido)methyl)-5-benzyl-4,5-dihydroisoxazol-5-carboxamido)-3-methylbutyl)boronic acid], for which the 50% inhibitory concentration (IC50) was less than 10 nM.
`CC(=O)Nc1cccc(C(=O)NCC2=NOC(Cc3ccccc3)(C(=O)N[C@@H](CC(C)C)B(O)O)C2)c1` (stereo partly drawn) [Example 320]: the IC50 is less than 10 nM.
Take `COc1ccccc1-c1cccc(COCC2=NOC(Cc3ccccc3)(C(=O)N[C@@H](CC(C)C)B(O)O)C2)c1` (stereo partly drawn) [Example 58, [(1R)-1-[[5-benzyl-3-[[3-(2-methoxyphenyl)phenyl]methoxymethyl]-4H-1,2-oxazol-5-carbonyl]amino]-3-methyl-butyl]boronic acid]: the 50% inhibitory concentration (IC50) is less than 25 nM.
Turning to `CC(C)C[C@H](NC(=O)C1(Cc2ccccc2)CC(CNC(=O)c2cc(-c3cccnc3)nn2C(C)C)=NO1)B(O)O` (stereo partly drawn) [Example 228, ((1R)-1-(5-benzyl-3-((1-isopropyl-3-(pyridin-3-yl)-1H-pyrazol-5-carboxamido)methyl)-4,5-dihydroisoxazol-5-carboxamido)-3-methylbutyl)boronic acid], the half-inhibitory concentration (IC50) is less than 10 nM.
As for `Cc1nc(C)c(C(=O)NCC2=NOC(Cc3cccc(Cl)c3)(C(=O)N[C@@H](CC(C)C)B(O)O)C2)s1` (stereo partly drawn) [Example 219, ((1R)-1-(5-(3-chlorobenzyl)-3-((2,4-dimethylthiazol-5-carboxamido)methyl)-4,5-dihydroisoxazol-5-carboxamido)-3-methylbutyl)boronic acid], the figure is less than 10 nM; as for `CC[C@H](NC(=O)C1(Cc2ccccc2)CC(CNC(=O)c2cccc(Cl)n2)=NO1)B(O)O` (stereo partly drawn) [Example 318, ((1R)-1-(5-benzyl-3-((6-chloropicolinamido)methyl)-4,5-dihydroisoxazol-5-carboxamido)propyl)boronic acid], less than 25 nM; as for `CC(C)C[C@H](NC(=O)C1(Cc2ccccc2)CC(CN(C)C(=O)c2nccc3ccccc23)=NO1)B(O)O` (stereo partly drawn) [Example 99, ((1R)-1-(5-benzyl-3-((N-methylisoquinolin-1-carboxamido)methyl)-4,5-dihydroisoxazol-5-carboxamido)-3-methylbutyl)boronic acid], less than 25 nM.
The value for `CC(C)C[C@H](NC(=O)C12CCCC1C(CNC(=O)c1cccn3ccnc13)=NO2)B(O)O` (stereo partly drawn) [Example 199, ((1R)-1-(3-((imidazo[1,2-a]pyridin-8-carboxamido)methyl)-3a,5,6,6a-tetrahydro-4H-cyclopenta[d]isoxazol-6a-carboxamido)-3-methylbutyl)boronic acid] was less than 1000 nM; that for `CC(C)C[C@H](NC(=O)C1(Cc2ccccc2)CC(CNC(=O)c2cc(-c3ccncc3)nn2C(C)C)=NO1)B(O)O` (stereo partly drawn) [Example 229, ((1R)-1-(5-benzyl-3-((1-isopropyl-3-(pyridin-4-yl)-1H-pyrazol-5-carboxamido)methyl)-4,5-dihydroisoxazol-5-carboxamido)-3-methylbutyl)boronic acid] was less than 10 nM.

The values are drawn from patent US12570675B2, “Boronic acid compounds” (LG CHEM, LTD., priority 2020, dated 2026).
